Test results as given in patent US7897582B2, “Oligonucleotide compositions and methods for the modulation of the expression of B7 protein” (Isis Pharmaceuticals, Inc., priority 2003, dated 2011).
Strand notation (5' to 3'): a small letter for the sugar, then the base; units joined by * are phosphorothioate-linked, units joined directly phosphodiester-linked; [ ] holds rarer units or linkages, { } end groups; capitals alone tell only the bases. e = 2'-O-(2-methoxyethyl) (MOE); [5mC] = 5-methylcytosine; d = 2'-deoxy (DNA)

System: human B7.2 mRNA
Assay: Human B7.2 mRNA levels in THP-1 cells by quantitative real-time PCR (Example 27)
Assay type: cell-based
Set-up: concentration or dose not given beside the values
Description: In accordance with the present invention, an additional series of antisense compounds were designed to target different regions of the human B7.2 RNA, using published sequences (GenBank accession number U04343.1, incorporated herein as SEQ ID NO: 295, GenBank accession number BC040261.1, incorporated herein as SEQ ID NO: 296 and GenBank accession number NT—005543.12, a portion of which is incorporated herein as SEQ ID NO: 297). “Target site” indicates the first (5′-most) nucleotide number on the particular target sequence to which the compound binds. All compounds in Table 25 are chimeric oligonucleotides (“gapmers”) 20 nucleotides in length, composed of a central “gap” region consisting of ten 2′-deoxynucleotides, which is flanked on both sides (5′ and 3′ directions) by five-nucleotide “wings”. The wings are composed of 2′-methoxyethyl (2′-MOE)nucleotides. The internucleoside (backbone) linkages are phosphorothioate (P═S) throughout the oligonucleotide. All cytidine residues are 5-methylcytidines. The compounds were analyzed for their effect on human B7.2 mRNA levels in THP-1 cells by quantitative real-time PCR as described in other examples herein. Data are averages from three experiments. If present, “N.D.” indicates “no data”.

Row | Substance | % INHIB (inhibition of human B7.2 mRNA levels) [%]
1 | 323651 (antisense eT*eG*eA*e[5mC]*eA*dG*dT*dT*d[5mC]*dA*dG*dA*dA*dT*dT*e[5mC]*eA*eT*e[5mC]*eT) [compound 323651] | 64
2 | 323652 (antisense eA*eG*e[5mC]*eA*e[5mC]*dT*dG*dA*d[5mC]*dA*dG*dT*dT*d[5mC]*dA*eG*eA*eA*eT*eT) [compound 323652] | 87
3 | 323653 (antisense eT*eA*eG*e[5mC]*eA*dA*dG*d[5mC]*dA*d[5mC]*dT*dG*dA*d[5mC]*dA*eG*eT*eT*e[5mC]*eA) [compound 323653] | 96
4 | 323654 (antisense eT*eG*eA*eA*eG*dT*dT*dA*dG*d[5mC]*dA*dA*dG*d[5mC]*dA*e[5mC]*eT*eG*eA*e[5mC]) [compound 323654] | 87
5 | 323655 (antisense eT*eT*eG*eA*e[5mC]*dT*dG*dA*dA*dG*dT*dT*dA*dG*d[5mC]*eA*eA*eG*e[5mC]*eA) [compound 323655] | 65
6 | 323656 (antisense e[5mC]*eT*eA*eT*eT*dT*d[5mC]*dA*dG*dG*dT*dT*dG*dA*d[5mC]*eT*eG*eA*eA*eG) [compound 323656] | 76
7 | 323657 (antisense eT*e[5mC]*eT*eG*eT*dT*dA*dT*dA*dT*dT*dA*dG*dA*dA*eA*eT*eT*eG*eG) [compound 323657] | 43
8 | 323658 (antisense eG*e[5mC]*eA*eG*eG*dT*d[5mC]*dA*dA*dA*dT*dT*dT*dA*dT*eG*eT*eA*e[5mC]*eA) [compound 323658] | 36
9 | 323659 (antisense eG*eT*eA*eT*eA*dG*dA*dT*dG*dA*dG*d[5mC]*dA*dG*dG*eT*e[5mC]*eA*eA*eA) [compound 323659] | 56
10 | 323660 (antisense eG*eG*eG*eT*eA*dA*d[5mC]*d[5mC]*dG*dT*dG*dT*dA*dT*dA*eG*eA*eT*eG*eA) [compound 323660] | 71
11 | 323661 (antisense eA*eG*eG*eT*eT*d[5mC]*dT*dG*dG*dG*dT*dA*dA*d[5mC]*d[5mC]*eG*eT*eG*eT*eA) [compound 323661] | 68
12 | 323662 (antisense eT*eA*eG*e[5mC]*eA*dA*dA*dA*d[5mC]*dA*d[5mC]*dT*d[5mC]*dA*dT*e[5mC]*eT*eT*e[5mC]*eT) [compound 323662] | 22
13 | 323663 (antisense eG*eT*eT*e[5mC]*eT*dT*dA*dG*d[5mC]*dA*dA*dA*dA*d[5mC]*dA*e[5mC]*eT*e[5mC]*eA*eT) [compound 323663] | 23
14 | 323664 (antisense eA*eT*eT*e[5mC]*eT*dT*dG*dG*dT*dT*d[5mC]*dT*dT*dA*dG*e[5mC]*eA*eA*eA*eA) [compound 323664] | 35
15 | 323665 (antisense eG*eA*eT*eA*eG*dT*dT*dG*dA*dA*dT*dT*d[5mC]*dT*dT*eG*eG*eT*eT*e[5mC]) [compound 323665] | 43
16 | 323666 (antisense eA*e[5mC]*e[5mC]*eA*eT*d[5mC]*dA*dT*dA*d[5mC]*dT*d[5mC]*dG*dA*dT*eA*eG*eT*eT*eG) [compound 323666] | 71
17 | 323667 (antisense eA*eT*e[5mC]*eT*eT*dG*dA*dG*dA*dT*dT*dT*d[5mC]*dT*dG*e[5mC]*eA*eT*eA*eA) [compound 323667] | 52
18 | 323668 (antisense eA*e[5mC]*eA*eT*eT*dA*dT*d[5mC]*dT*dT*dG*dA*dG*dA*dT*eT*eT*e[5mC]*eT*eG) [compound 323668] | 39

Row | Substance | % INHIB (inhibition of human B7.2 mRNA levels) [%]
19 | 323669 (antisense e[5mC]*eG*eT*eA*e[5mC]*dA*dG*dT*dT*d[5mC]*dT*dG*dT*dG*dA*e[5mC]*eA*eT*eT*eA) [compound 323669] | 68
20 | 323670 (antisense eA*eG*eA*e[5mC]*eA*dA*dG*d[5mC]*dT*dG*dA*dT*dG*dG*dA*eA*eA*e[5mC]*eG*eT) [compound 323670] | 19
21 | 323671 (antisense eG*eA*eA*eA*e[5mC]*dA*dG*dA*d[5mC]*dA*dA*dG*d[5mC]*dT*dG*eA*eT*eG*eG*eA) [compound 323671] | 26
22 | 323672 (antisense eG*eG*eA*eA*eT*dG*dA*dA*dA*d[5mC]*dA*dG*dA*d[5mC]*dA*eA*eG*e[5mC]*eT*eG) [compound 323672] | 33
23 | 323673 (antisense e[5mC]*eA*eT*e[5mC]*eA*dG*dG*dG*dA*dA*dT*dG*dA*dA*dA*e[5mC]*eA*eG*eA*e[5mC]) [compound 323673] | 38
24 | 323674 (antisense e[5mC]*eG*eT*eA*eA*d[5mC]*dA*dT*d[5mC]*dA*dG*dG*dG*dA*dA*eT*eG*eA*eA*eA) [compound 323674] | 47
25 | 323675 (antisense eA*eG*e[5mC]*eT*e[5mC]*dT*dA*dT*dA*dG*dA*dG*dA*dA*dA*eG*eG*eT*eG*eA) [compound 323675] | 77
26 | 323676 (antisense e[5mC]*e[5mC]*eT*e[5mC]*eA*dA*dG*d[5mC]*dT*d[5mC]*dT*dA*dT*dA*dG*eA*eG*eA*eA*eA) [compound 323676] | 24
27 | 323677 (antisense eG*eG*eA*eG*eG*d[5mC]*dT*dG*dA*dG*dG*dG*dT*d[5mC]*d[5mC]*eT*e[5mC]*eA*eA*eG) [compound 323677] | 55
28 | 323678 (antisense eA*eG*eT*eA*e[5mC]*dA*dG*d[5mC]*dT*dG*dT*dA*dA*dT*d[5mC]*e[5mC]*eA*eA*eG*eG) [compound 323678] | 23
29 | 323679 (antisense eT*eT*eG*eG*eA*dA*dG*dT*dA*d[5mC]*dA*dG*d[5mC]*dT*dG*eT*eA*eA*eT*e[5mC]) [compound 323679] | 60
30 | 323680 (antisense eA*eT*eA*eA*eT*dA*dA*d[5mC]*dT*dG*dT*dT*dG*dG*dA*eA*eG*eT*eA*e[5mC]) [compound 323680] | 51
31 | 323681 (antisense e[5mC]*eA*eT*e[5mC]*eA*d[5mC]*dA*d[5mC]*dA*dT*dA*dT*dA*dA*dT*eA*eA*e[5mC]*eT*eG) [compound 323681] | 8
32 | 323682 (antisense eT*e[5mC]*e[5mC]*eA*eT*dT*dT*d[5mC]*d[5mC]*dA*dT*dA*dG*dA*dA*eT*eT*eA*eG*eA) [compound 323682] | 35
33 | 323683 (antisense eT*e[5mC]*eT*eT*e[5mC]*dT*dT*d[5mC]*d[5mC]*dA*dT*dT*dT*d[5mC]*d[5mC]*eA*eT*eA*eG*eA) [compound 323683] | 16
34 | 323684 (antisense eA*eT*eT*eT*eA*dT*dA*dA*dG*dA*dG*dT*dT*dG*d[5mC]*eG*eA*eG*eG*e[5mC]) [compound 323684] | 32
35 | 323685 (antisense eT*eT*eG*eG*eT*dT*d[5mC]*d[5mC]*dA*d[5mC]*dA*dT*dT*dT*dA*eT*eA*eA*eG*eA) [compound 323685] | 18
